Measurements from ChEMBL document CHEMBL4513139, “CO-ADD screening of University of Strathclyde (UK) compounds”.
≈ marks a conversion by molar mass, not a printed value.

Experiments:
HEK293 = test: cells; assay type: functional, Homo sapiens, ATCC CRL1573; conditions: Homo sapiens, ATCC CRL1573, HEK293; ASSAY_TEST Inhibition of Cell Viability; detection method Resazurin; Fluorescence (ex560/em590); MEDIA DMEM with 10% FBS; plate type 384well; TC; CORNING #3712; time 18 hr; read-out: CC50
Staphylococcus aureus = test: microbe, parasite or virus in culture; conditions: ATCC 43300, 18 h, ASSAY_TEST Inhibition of Bacterial Growth, detection method Absorption (OD600), MEDIA CAMHB, plate type 384well, NBS, CORNING #3640
Description: Antibacterial activity against Staphylococcus aureus MRSA ATCC 43300 (CO-ADD:GP_020); MIC in CAMBH media, using NBS plates, by OD(600)

Escherichia coli = test: microbe, parasite or virus in culture; conditions: ATCC 25922, 18 h, ASSAY_TEST Inhibition of Bacterial Growth, detection method Absorption (OD600), MEDIA CAMHB, plate type 384well, NBS, CORNING #3640
Description: Antibacterial activity against Escherichia coli ATCC 25922 (CO-ADD:GN_001); MIC in CAMBH media using NBS plates, by OD(600)

Klebsiella pneumoniae = test: microbe, parasite or virus in culture; conditions: ATCC 700603, 18 h, ASSAY_TEST Inhibition of Bacterial Growth, detection method Absorption (OD600), MEDIA CAMHB, plate type 384well, NBS, CORNING #3640
Description: Antibacterial activity against Klebsiella pneumoniae MDR ATCC 70063 (CO-ADD:GN_003); MIC in CAMBH media using NBS plates, by OD(600)

Pseudomonas aeruginosa = test: microbe, parasite or virus in culture; conditions: ATCC 27853, 18 h, ASSAY_TEST Inhibition of Bacterial Growth, detection method Absorption (OD600), MEDIA CAMHB, plate type 384well, NBS, CORNING #3640
Description: Antibacterial activity against Pseudomonas aeruginosa ATCC 27853 (CO-ADD:GN_042); MIC in CAMBH media using NBS plates, by OD(600)

Acinetobacter baumannii = test: microbe, parasite or virus in culture; conditions: ATCC 19606, 18 h, ASSAY_TEST Inhibition of Bacterial Growth, detection method Absorption (OD600), MEDIA CAMHB, plate type 384well, NBS, CORNING #3640
Description: Antibacterial activity against Acinetobacter baumannii ATCC 19606 (CO-ADD:GN_034); MIC in CAMBH media using NBS plates, by OD600

Candida albicans = test: microbe, parasite or virus in culture; conditions: ATCC 90028, ASSAY_TEST Inhibition of Fungal Growth, detection method Absorption (OD530), plate type 384well, NBS, CORNING #3640
Description: Antifungal activity against Candida albicans ATCC 90028 (CO-ADD:FG_001); MIC in YNB media using NBS plates, by OD630

Description for Cryptococcus neoformans: Antifungal activity against Cryptococcus neoformans H99 ATCC 208821 (CO-ADD:FG_002); MIC in YNB media using NBS plates, by Resazurin OD(600-570)

Row | SMILES | CC50 (HEK293) [µg/mL] | MIC (Cryptococcus neoformans) [µg/mL] | MIC (Staphylococcus aureus) [µg/mL] | MIC (Escherichia coli) [µg/mL] | MIC (Klebsiella pneumoniae) [µg/mL] | MIC (Pseudomonas aeruginosa) [µg/mL] | MIC (Acinetobacter baumannii) [µg/mL] | MIC (Candida albicans) [µg/mL]
1 | CN(C)CCCn1cnc(NC(=O)c2cc(NC(=O)c3cc(NC(=O)c4cc5ccccc5cn4)cn3C)cn2C)c1.O=C(O)C(F)(F)F | 7.3 | 16 | > 32 | > 32 | > 32 | > 32 | > 32 | > 32
2 | COc1cccc(C(=N)Nc2cc(C(=O)Nc3cc(C(=O)Nc4cc(C(=O)NCCCN(C)C)n(CCC(C)C)c4)n(C)c3)n(C)c2)c1 | > 32 | > 32 | > 32 | > 32 | > 32 | > 32 | > 32 | > 32
3 | COCCOC1CCN(CCNC(=O)c2cc(NC(=O)c3cc(NC(=O)c4ccc(/C=C/c5ccc6nonc6c5)cc4)cn3C)cn2C)CC1.O=S(=O)(O)O | 3.84 | > 32 | > 32 | > 32 | > 32 | > 32 | > 32 | > 32
4 | Cn1cc(NC(=O)c2cc(NC(=O)c3ccc(/C=C/c4ccc(C(F)(F)F)cc4)cc3)cn2C)cc1C(=O)NCCN1CCOCC1.O=C(O)C(F)(F)F | > 32 | > 32 | > 32 | > 32 | > 32 | > 32 | > 32 | > 32
5 | COC1CCN(CCNC(=O)c2cc(NC(=O)c3cc(NC(=O)c4ccc(/C=C/c5cnc6ccccc6c5)cc4)cn3C)cn2C)CC1 | 2.89 (≈ 4.38 µM) | 16 (≈ 24.3 µM) | ≤ 0.25 | > 32 | > 32 | > 32 | > 32 | 32 (≈ 48.5 µM)
6 | COC1CCN(CCNC(=O)c2cc(NC(=O)c3cc(NC(=O)c4ccc(/C=C/c5ccc(N(C)C)cc5)nc4)cn3C)cn2C)CC1.O=C(O)C(F)(F)F.O=C(O)C(F)(F)F | 1.28 | 2 | ≤ 0.25 | > 32 | > 32 | > 32 | > 32 | 2
7 | Cn1cc(NC(=O)c2cc(NC(=O)c3ccc(/C=C/c4ccc5ccccc5n4)cc3)cn2C)cc1C(=O)NCCN1CCOCC1.O=C(O)C(F)(F)F | 1.95 | 4 | 4 | > 32 | > 32 | > 32 | > 32 | 4
8 | COc1cccc(/C=C/c2ccc(C(=O)Nc3cc(C(=O)Nc4cc(C(=O)NCCCN(C)C)n(C)c4)n(C)c3)cc2)c1.O=C(O)C(F)(F)F | 11.4 | > 32 | > 32 | > 32 | > 32 | > 32 | > 32 | > 32
9 | CC(C)CCc1sc(NC(=O)c2cc(NC(=O)c3cc4ccccc4cn3)cn2C)nc1C(=O)NCCCN(C)C.O=C(O)C(F)(F)F | 2.17 | > 32 | > 32 | > 32 | > 32 | > 32 | > 32 | > 32
10 | COCCOC1CCN(CCNC(=O)c2cc(NC(=O)c3cc(NC(=O)c4ccc(/C=C/c5ccc(OC)cc5)nc4)cn3C)cn2C)CC1 | 3 (≈ 4.39 µM) | > 32 | 2 (≈ 2.92 µM) | > 32 | > 32 | > 32 | > 32 | > 32
11 | Cn1cc(NC(=O)c2cc(NC(=O)c3ccccc3)cn2C)cc1C(=O)NCCC(=N)N.O=C(O)C(F)(F)F | 7.43 | > 32 | > 32 | > 32 | > 32 | > 32 | > 32 | > 32
12 | Cn1cc(NC(=O)c2cc(NC(=O)c3ccc(/C=C/c4cc5ccccc5nc4On4nnc5ccccc54)cc3)cn2C)cc1C(=O)NCCN1CCOCC1.O=C(O)C(F)(F)F | > 32 | > 32 | > 32 | > 32 | > 32 | > 32 | > 32 | > 32
13 | CC(=O)/C=C/c1ccc(C(=O)Nc2cc(C(=O)Nc3cc(C(=O)NCCN4CCOCC4)n(C)c3)n(C)c2)cc1.O=C(O)C(F)(F)F | 7.01 | > 32 | > 32 | > 32 | > 32 | > 32 | > 32 | > 32
14 | CN(C)c1ccc(/C=C/c2ccc(C(=O)Nc3cc(C(=O)Nc4cc(C(=O)NCCN5CCOCC5)n(C)c4)n(C)c3)cn2)cc1.O=C(O)C(F)(F)F | 1.11 | 1 | 1 | > 32 | > 32 | > 32 | > 32 | 2
15 | CC(C)CCc1sc(NC(=O)c2cc(NC(=O)c3cc(NC(=N)c4cnc5ccccc5c4)cn3C)cn2C)nc1C(=O)NCCCN(C)C.O=C(O)C(F)(F)F.O=C(O)C(F)(F)F | 1.18 | ≤ 0.25 | 1 | > 32 | > 32 | > 32 | > 32 | > 32
16 | Cn1cc(NC(=O)c2cc(NC(=O)c3cc4ccccc4cn3)cn2C)cc1C(=O)NCCN1CCOCC1.O=C(O)C(F)(F)F | > 32 | > 32 | > 32 | > 32 | > 32 | > 32 | > 32 | > 32
17 | CSc1ccc(/C=C/c2ccc3cc(C(=O)Nc4cc(C(=O)Nc5cc(C(=O)NCCN6CCOCC6)n(C)c5)n(C)c4)ccc3n2)cc1.O=C(O)C(F)(F)F | > 32 | 8 | > 32 | > 32 | > 32 | > 32 | > 32 | 4
18 | COCCOC1CCN(CCNC(=O)c2cc(NC(=O)c3cc(NC(=O)c4ccc(/C=C/c5ccc(OC)cc5)cc4)cn3C)cn2C)CC1.O=S(=O)(O)O | 1.57 | > 32 | 16 | > 32 | > 32 | > 32 | > 32 | > 32
19 | Cn1cc(NC(=O)c2cc(NC(=O)c3ccc(/C=C/c4cnc5ccccc5c4)cc3)cn2C)cc1C(=O)NCC[N+]1([O-])CCCCC1.O=C(O)C(F)(F)F | 2.97 | > 32 | > 32 | > 32 | > 32 | > 32 | > 32 | > 32
20 | COc1cccc(/C=C/c2ccc(C(=O)Nc3cc(C(=O)Nc4cc(C(=O)NCCN5CCC(O)CC5)n(C)c4)n(C)c3)cc2)c1.O=C(O)C(F)(F)F | 11.7 | > 32 | 16 | > 32 | > 32 | > 32 | > 32 | > 32
21 | COC(=O)c1ccc(C(=O)Nc2cc(C(=O)Nc3cc(C(=O)Nc4nc(C(=O)NCCCN(C)C)c(CCC(C)C)s4)n(C)c3)n(C)c2)cc1.O=C(O)C(F)(F)F | 2.72 | > 32 | > 32 | > 32 | > 32 | > 32 | > 32 | > 32
22 | Cn1cc(NC(=O)c2ccc(/C=C/c3cnc4ccccc4c3)cc2)cc1C(=O)Nc1cc(C(=O)NCCN2CCOCC2)n(CCCc2cn(CCc3ccccc3)nn2)c1.O=C(O)C(F)(F)F | > 32 | 16 | > 32 | > 32 | > 32 | > 32 | > 32 | > 32
23 | Cn1cc(NC(=O)c2cc(NC(=O)c3cc(NC(=O)c4ccc(Cl)cc4Cl)cn3C)cn2C)cc1C(=O)NCCCN1CCOCC1.O=C(O)C(F)(F)F | 7.32 | > 32 | > 32 | > 32 | > 32 | > 32 | > 32 | > 32
24 | COc1ccc(/C=C/c2ccc(C(=O)Nc3cc(C(=O)Nc4cc(C(=O)NCCN5CCC(OC)CC5)n(C)c4)n(C)c3)cc2)cc1.O=C(O)C(F)(F)F | 6.43 | > 32 | > 32 | > 32 | > 32 | > 32 | > 32 | > 32
25 | CC(C)c1sc(NC(=O)c2cc(NC(=O)c3cc(NC(=O)c4cc(NC=O)cn4C)cn3C)cn2C)nc1C(=O)NCCCN(C)C.O=C(O)C(F)(F)F | > 32 | > 32 | 16 | > 32 | > 32 | > 32 | > 32 | > 32
26 | CN(C)CCCNC(=O)c1cc(NC(=O)c2cc(NC(=O)c3cc(NC(=N)c4cnc5ccccc5c4)cn3C)cn2C)cn1C.O=C(O)C(F)(F)F.O=C(O)C(F)(F)F | > 32 | 8 | > 32 | > 32 | > 32 | > 32 | > 32 | > 32
